Experimental findings from US8288424B2, “Substituted tetrahydroimidazopyridine compounds and the use thereof in the treatment of pain and other conditions” (Gruenenthal GmbH, priority 2008, dated 2012) are described below.

The first assay has as its target T1, KCNQ2/3 channels (Homo sapiens, UniProt O43525+O43526).
T1 construct: expressed in transfected cells; host or cells: CHO-K1
Put plainly: Fluorescence assay using a voltage-sensitive dye. It counts as cell-based. Conditions: 10 μmol test substance; CHO-K1 cells expressing KCNQ2/3 channels; agonistic activity; read-out: % Stimulation [10 μmol] Average. As to the method: Fluorescence Assay Using a Voltage-Sensitive Dye
Human CHO-K1 cells expressing KCNQ2/3 channels are cultivated adherently at 37° C., 5% CO2 and 95% humidity in cell culture bottles (e.g. 80 cm^2 TC flasks, Nunc) with MEM Alpha Medium (1×, liquid, Invitrogen, #22571), 10% foetal calf serum (FCS) (Invitrogen, #10270-106, heat-inactivated) and the necessary selection antibiotics. Before being spread out for the measurements, the cells are washed with a 1×DPBS buffer without Ca^2+/Mg^2+ (e.g. Invitrogen, #14190-094) and detached from the bottom of the culture vessel by means of Accutase (PAA Laboratories, #L11-007) (incubation with Accutase for 15 min at 37° C.). The cell count then present is determined using a CASY™ cell counter (TCC model, Schärfe System) in order subsequently to apply 20,000 cells/well/100 μl of the described nutrient medium to 96-well measuring plates of the Corning™ CellBIND™ type (flat clear-bottom black polystyrene microplates, #3340). Incubation is then carried out for one hour at room temperature, without gassing or adjusting the humidity, followed by incubation for 24 hours at 37° C., 5% CO2 and 95% humidity.
The voltage-sensitive fluorescent dye from the Membrane Potential Assay Kit (Red bulk format part R8123 for FLIPR, Molecular Devices™) is prepared by dissolving the contents of a vessel of Membrane Potential Assay Kit Red Component A in 200 ml of extracellular buffer (ES buffer, 120 mM NaCl, 1 mM KCl, 10 mM HEPES, 2 mM CaCl2, 2 mM MgCl2, 10 mM glucose; pH 7.4). After removal of the nutrient medium, the cells are washed with 200 μl of ES buffer, then covered with a layer of 100 μl of the dye solution prepared above and incubated for 45 min at room temperature with exclusion of light.
The fluorescence measurements are carried out with a BMG Labtech FLUOstar™ or BMG Labtech POLARstar™ instrument (525 nm excitation, 560 nm emission, bottom-read mode). After incubation of the dye, 50 μl of the substances to be tested in the desired concentrations, or 50 μl of ES buffer for control purposes, are introduced into separate cavities of the measuring plate and incubated for 30 min at room temperature whilst being shielded from light. The fluorescence intensity of the dye is then measured for 5 min and the fluorescence value F1 of each well is thus determined at a given, constant time. 15 μl of a […] KCl solution ([…]) are then added to each well. The change in fluorescence is subsequently measured until all relevant measured values have been obtained (mainly 5-30 min). At a given time after KCl application, a fluorescence value F2 is determined, in this case at the time of the fluorescence peak.
For calculation, the fluorescence intensity F2 is compared with the fluorescence intensity F1, and the agonistic activity of the target compound on the potassium channel is determined therefrom. F2 and F1 are calculated as follows:
[formula] In order to determine whether a substance has an agonistic activity,
[formula] for example, can be compared with
[formula] of control cells.
[formula] is determined by adding to the reaction batch only the buffer solution instead of the substance to be tested, determining the value F1K of the fluorescence intensity, adding the potassium ions as described above and measuring a value F2K of the fluorescence intensity. Then F2K and F1K are calculated as follows:
[formula] A substance has an agonistic activity on the potassium channel when
[formula] is greater than
[formula] Independently of the comparison of
[formula] it is also possible to conclude that a target compound has an agonistic activity if an increase in
[formula] is to be observed as the dosage of the target compound increases. Calculations of EC50 and IC50 values are carried out with the aid of Prism 4 software (GraphPad Software™).
Regarding `O=C(NC1CC1)c1cn2c(n1)CCC(c1ccc(Oc3ccccc3)cc1)C2` (stereo not shown) [Compound 26, N-Cyclopropyl-6-(4-phenoxyphenyl)-5,6,7,8-tetrahydroimidazo[1,2-a]pyridine-2-carboxamide], the activation at 10 µM is 17.4%. Turning to `Cc1cccc(C2CCc3nc(C(=O)N4CCCC4)cn3C2)c1` (stereo not shown) [Compound 29, Pyrrolidin-1-yl(6-m-tolyl-5,6,7,8-tetrahydroimidazo[1,2-a]pyridin-2-yl)methanone], the activation at 10 µM is 26.2%. Take `O=C(c1cn2c(n1)CCC(c1cc(C(F)(F)F)cc(C(F)(F)F)c1)C2)N1CCCC1` (stereo not shown) [Compound 30, (6-(3,5-Bis(trifluoromethyl)phenyl)-5,6,7,8-tetrahydroimidazo[1,2-a]pyridin-2-yl)(pyrrolidin-1-yl)methanone]: the activation at 10 µM was found to be 20.9%. On the same count and under the same terms, under `O=C(c1cn2c(n1)CCC(c1cccc(C(F)(F)F)c1)C2)N1CCCC1` (stereo not shown) [Compound 31, Pyrrolidin-1-yl(6-(3-(trifluoromethyl)phenyl)-5,6,7,8-tetrahydroimidazo[1,2-a]pyridin-2-yl)methanone] stands 17.6%; under `O=C(c1cn2c(n1)CCC(c1cccc(C(F)(F)F)c1)C2)N1CCN(c2ccccc2F)CC1` (stereo not shown) [Compound 32, (4-(2-Fluorophenyl)piperazin-1-yl)(6-(3-(trifluoromethyl)phenyl)-5,6,7,8-tetrahydroimidazo[1,2-a]pyridin-2-yl)methanone], 21.2%; under `COc1ccc(C2CCc3nc(C(=O)N4CCCC4)cn3C2)c(OC)c1` (stereo not shown) [Compound 33, (6-(2,4-Dimethoxyphenyl)-5,6,7,8-tetrahydroimidazo[1,2-a]pyridin-2-yl)(pyrrolidin-1-yl)methanone], 24.5%. In the case of `Cc1ccccc1C1CCc2nc(C(=O)N3CCCC3)cn2C1` (stereo not shown) [Compound 34, Pyrrolidin-1-yl(6-o-tolyl-5,6,7,8-tetrahydroimidazo[1,2-a]pyridin-2-yl)methanone], the activation at 10 µM was 32.2%. With `Cc1ccccc1C1CCc2nc(C(=O)N3CCN(c4cccc(C(F)(F)F)c4)CC3)cn2C1` (stereo not shown) [Compound 35, (6-o-Tolyl-5,6,7,8-tetrahydroimidazo[1,2-a]pyridin-2-yl)(4-(3-(trifluoromethyl)-phenyl)piperazin-1-yl)methanone], the activation at 10 µM was 20.9%. The same measure, in the same setting: next, `O=C(c1cn2c(n1)CCC(c1cc(F)ccc1F)C2)N1CCCC1` (stereo not shown) [Compound 36, (6-(2,5-Difluorophenyl)-5,6,7,8-tetrahydroimidazo[1,2-a]pyridin-2-yl)(pyrrolidin-1-yl)methanone]: 21.7%; `CCc1ccc(C2CCc3nc(C(=O)N4CCCC4)cn3C2)cc1` (stereo not shown) [Compound 37, (6-(4-Ethylphenyl)-5,6,7,8-tetrahydroimidazo[1,2-a]pyridin-2-yl)(pyrrolidin-1-yl)methanone]: 15.5%; `CC1(C)CC2CC(C)(CN2C(=O)c2cn3c(n2)CCC(c2ccc(F)cc2)C3)C1` (stereo not shown) [Compound 38, (6-(4-Fluorophenyl)-5,6,7,8-tetrahydroimidazo[1,2-a]pyridin-2-yl)(1,3,3-trimethyl-6-azabicyclo[3.2.1]octan-6-yl)methanone]: 25.9%.

Regarding `COc1ccc(C2CCc3nc(C(=O)NCc4cccc(C(F)(F)F)c4)cn3C2)cc1` (stereo not shown) [Compound 39, 6-(4-Methoxyphenyl)-N-(3-(trifluoromethyl)benzyl)-5,6,7,8-tetrahydroimidazo[1,2-a]pyridine-2-carboxamide], the activation at 10 µM was 17.8%.

On to `CCc1ccc(C2CCc3nc(C(=O)NCCc4ccccc4)cn3C2)cc1` (stereo not shown) [Compound 40, 6-(4-Ethylphenyl)-N-phenethyl-5,6,7,8-tetrahydroimidazo[1,2-a]pyridine-2-carboxamide], for which the activation at 10 µM amounted to 16.6%. Still for that read-out and setting: next, `O=C(c1cn2c(n1)CCC(c1ccc(F)cc1)C2)N1CCC(Cc2ccccc2)CC1` (stereo not shown) [Compound 41, (4-Benzylpiperidin-1-yl)(6-(4-fluorophenyl)-5,6,7,8-tetrahydroimidazo[1,2-a]pyridin-2-yl)methanone]: 29.4%; `O=C(NCc1ccc2c(c1)OCO2)c1cn2c(n1)CCC(c1cc(C(F)(F)F)cc(C(F)(F)F)c1)C2` (stereo not shown) [Compound 42, N-(Benzo[d][1,3]dioxol-5-ylmethyl)-6-(3,5-bis(trifluoromethyl)phenyl)-5,6,7,8-tetrahydroimidazo[1,2-a]pyridine-2-carboxamide]: 18.1%; `O=C(NCc1ccccc1)c1cn2c(n1)CCC(c1cc(C(F)(F)F)cc(C(F)(F)F)c1)C2` (stereo not shown) [Compound 43, N-Benzyl-6-(3,5-bis(trifluoromethyl)phenyl)-5,6,7,8-tetrahydroimidazo[1,2-a]pyridine-2-carboxamide]: 16.3%.

Regarding `COc1ccc(N2CCN(C(=O)c3cn4c(n3)CCC(c3cc(C)c(OC)c(C)c3)C4)CC2)cc1` (stereo not shown) [Compound 44, (6-(4-Methoxy-3,5-dimethylphenyl)-5,6,7,8-tetrahydroimidazo[1,2-a]pyridin-2-yl)(4-(4-methoxyphenyl)piperazin-1-yl)methanone], the activation at 10 µM is 27.5%. Turning to `O=C(c1cn2c(n1)CCC(c1ccc(F)cc1)C2)N1CCN(c2cccc(C(F)(F)F)c2)CC1` (stereo not shown) [Compound 47, (6-(4-Fluorophenyl)-5,6,7,8-tetrahydroimidazo[1,2-a]pyridin-2-yl)(4-(3-(trifluoromethyl)phenyl)piperazin-1-yl)methanone], the activation at 10 µM was 63.5%.

As to `O=C(c1cn2c(n1)CCC(c1cccc(F)c1)C2)N1CCN(c2cccc(C(F)(F)F)c2)CC1` (stereo not shown) [Compound 48, (6-(3-Fluorophenyl)-5,6,7,8-tetrahydroimidazo[1,2-a]pyridin-2-yl)(4-(3-(trifluoromethyl)phenyl)piperazin-1-yl)methanone], the activation at 10 µM was 33%.

Turning to `COc1c(C)cc(C2CCc3nc(C(=O)NCc4ccc(F)cc4)cn3C2)cc1C` (stereo not shown) [Compound 49, N-(4-Fluorobenzyl)-6-(4-methoxy-3,5-dimethylphenyl)-5,6,7,8-tetrahydroimidazo-[1,2-a]pyridine-2-carboxamide], the activation at 10 µM stood at 15.1%. On the same count and under the same terms, under `COc1cccc(C2CCc3nc(C(=O)N4CCC(Cc5ccccc5)CC4)cn3C2)c1` (stereo not shown) [Compound 50, (4-Benzylpiperidin-1-yl)(6-(3-methoxyphenyl)-5,6,7,8-tetrahydroimidazo[1,2-a]pyridin-2-yl)methanone] stands 25.7%.

The same assay, now with this note: CHO-K1 cells expressing KCNQ2/3 channels; agonistic activity.
As for `COc1ccc(CCNC(=O)c2cn3c(n2)CCC(c2ccc(Oc4ccccc4)cc2)C3)cc1OC` (stereo not shown) [Compound 27, N-(3,4-Dimethoxyphenethyl)-6-(4-phenoxyphenyl)-5,6,7,8-tetrahydroimidazo[1,2-a]pyridine-2-carboxamide], a half-maximal response (EC50) required 6.35 µM. On the same count and under the same terms, next, `CCCCCNC(=O)c1cn2c(n1)CCC(c1ccc(Oc3ccccc3)cc1)C2` (stereo not shown) [Compound 28, N-Pentyl-6-(4-phenoxyphenyl)-5,6,7,8-tetrahydroimidazo[1,2-a]pyridine-2-carboxamide]: 9.38 µM.

Take `CCOc1ccccc1N1CCN(C(=O)c2cn3c(n2)CCC(c2cccc(C)c2)C3)CC1` (stereo not shown) [Compound 45, (4-(2-Ethoxyphenyl)piperazin-1-yl)(6-m-tolyl-5,6,7,8-tetrahydroimidazo[1,2-a]pyridin-2-yl)methanone]: the midpoint of the response, the EC50, lay at 7.98 µM. In turn, `COc1ccc(C2CCc3nc(C(=O)N4CCN(c5cccc(C(F)(F)F)c5)CC4)cn3C2)c(OC)c1` (stereo not shown) [Compound 46, (6-(2,4-Dimethoxyphenyl)-5,6,7,8-tetrahydroimidazo[1,2-a]pyridin-2-yl)(4-(3-(trifluoromethyl)phenyl)piperazin-1-yl)methanone] registered an EC50 of 3.98 µM.
